These results are taken from US4500511A, “Antiinflammatory and analgesic gel” (Grelan Pharmaceutical Co., Ltd., priority 1982, dated 1985).

The subject of the experiment is vascular permeability. Kind of experiment: Suppression of increased vascular permeability (λ-carrageenin, dye leakage) in guinea pigs. The format is in vivo, Hartley strain albino guinea pigs. The settings on record: oral, 2.0 mg/kg; for Suppression rate: *p < 0.05. The protocol:
The hair on the back of Hartley strain albino guinea pigs (male; weighing 235 to 270 g; in groups of 7 animals) was removed with an electric hair clipper and an electric razor, circles, 2.5 cm in diameter (4.91 cm^2 in area), were drawn symmetrically on both sides of the medium line, and 50 mg of each test external preparation was applied to the area of each circle. Three hours after application, 0.1 ml of 0.1% λ-carrageeninsolution was injected intradermally into the center of each circle, followed by injection of 0.5 ml/100 g of body weight of 0.5% Pontamine sky blue solution into the vein of the penis. Three hours after injection, each animal was sacrificed by decapitation, exsanguinated and flayed, and the area of dye leakage (major axis x minor axis) on the inner side of the skin was measured with slide calipers.
The external preparations used were preparations (A), (D), (E) and (H) containing of 0.1%, 0.25%, 0.5% and 1% of clidanac, respectively, and preparations (f), (g), (h) and (i) containing 0.1%, 0.25%, 0.5% and 1% of indomethacin, respectively. In the control group, any preparation was not administered but massage alone was performed.
For further comparison, oral preparations respectively containing clidanac and indomethacin were prepared by the procedure of Reference Example 4 and orally administered in a clidanac dose of 2 mg/kg and in an indomethacin dose of 2 mg/kg, respectively, and the animals were treated in the same manner as mentioned above.
The rate of suppression was calculated using the follwoing formula: [formula] where C is the area of dye leakage for the control group and T is the area of dye leakage for the drug-treated group.

SMILES strings stand for the structures.

Consider `O=C(O)C1CCc2cc(C3CCCCC3)c(Cl)cc21` (stereo not shown) [Clidanac, 6-chloro-5-cyclohexylindane-1-carboxylic acid], for which the “Area of dye leakage” value worked out at 193.8 ± 12.1 mm^2 and the Suppression rate worked out at 17.4%.
As to `COc1ccc2c(c1)c(CC(=O)O)c(C)n2C(=O)c1ccc(Cl)cc1` [Indomethacin], the “Area of dye leakage” value came to 195.7 ± 13.6 mm^2 and the Suppression rate was 16.6%.
